Common to all, as to assay: Test A postemergence
Holding throughout (format): in vivo

Test [1] has as its system pigweed (Amaranthus retroflexus). The conditions noted are these: Amaranthus retroflexus, post-emergence, 240 h; for pest or weed control at 125 g/ha: 125 g ai/ha; for pest or weed control at 500 g/ha: 500 g ai/ha, 0 to 100 scale, 0 is no effect, 100 is complete control. The procedure, abridged:
(§1)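 Visual injury scores from 0, no effect, to 100, complete control, were assigned versus untreated controls roughly 10 d after treatment in the greenhouse. Test chemicals, formulated with surfactant in a non-phytotoxic solvent, were applied to planted seeds as a preemergence soil spray or postemergence to one- to two-leaf plants 2 to 10 cm tall, in loam–sand soil.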

The test system of test [2] is giant foxtail (Setaria faberii). The following applies: Setaria faberi, post-emergence, 240 h; for pest or weed control at 125 g/ha: 125 g ai/ha; for pest or weed control at 500 g/ha: 500 g ai/ha. The procedure, abridged: as §1
The subject of test [3] is wheat (Triticum aestivum). The following applies: Triticum aestivum, post-emergence, 240 h; for plant injury at 125 g/ha: 125 g ai/ha; for plant injury at 500 g/ha: 500 g ai/ha, 0 to 100 scale, 0 is no effect, 100 is complete control. A digest of the protocol:
as §1

The test system of test [4] is ryegrass, Italian (Italian ryegrass, Lolium multiflorum). The conditions noted are these: Lolium multiflorum, post-emergence, 240 h; for pest or weed control at 125 g/ha: 125 g ai/ha; for pest or weed control at 500 g/ha: 500 g ai/ha, 0 to 100 scale, 0 is no effect, 100 is complete control. The procedure, abridged:
as §1

In test [5] the test system is blackgrass (Alopecurus myosuroides). The following applies: Alopecurus myosuroides, post-emergence, 240 h; for pest or weed control at 125 g/ha: 125 g ai/ha; for pest or weed control at 500 g/ha: 500 g ai/ha. The procedure, abridged: as §1
For the next test, the system named is Kochia (Kochia scoparia). The conditions noted are these: Bassia scoparia, post-emergence, 240 h; for pest or weed control at 125 g/ha: 125 g ai/ha; for pest or weed control at 500 g/ha: 500 g ai/ha. The procedure, abridged:
as §1

Where [6] appears, read: Postemergence, visual injury after approximately 10 d, 0 to 100 scale where 0 is no effect and 100 is complete control, read-out: Plant response rating, Pigweed.
[7] abbreviates: Postemergence, visual injury after approximately 10 d, 0 to 100 scale where 0 is no effect and 100 is complete control, read-out: Plant response rating, Foxtail, Giant.
The mark [8] stands for this setting: Postemergence, visual injury after approximately 10 d, 0 to 100 scale where 0 is no effect and 100 is complete control, read-out: Plant response rating, Wheat.
Setting [9] is: Postemergence, visual injury after approximately 10 d, 0 to 100 scale where 0 is no effect and 100 is complete control, read-out: Plant response rating, Ryegrass, Italian.
Where [10] appears, read: Postemergence, visual injury after approximately 10 d, 0 to 100 scale where 0 is no effect and 100 is complete control, read-out: Plant response rating, Blackgrass.
Setting [11] is: Postemergence, visual injury after approximately 10 d, 0 to 100 scale where 0 is no effect and 100 is complete control, read-out: Plant response rating, Kochia.
Where [12] appears, read: postemergence, read-out: Pigweed plant response rating.
Setting [13] is: postemergence, visual injury on 0 to 100 scale (0 no effect, 100 complete control), approx. 10 d, read-out: Foxtail, Giant plant response rating.
The mark [14] stands for this setting: postemergence, 0 to 100 scale, 0 is no effect, 100 is complete control, read-out: Foxtail, Giant plant response rating.
The mark [15] stands for this setting: postemergence, read-out: Wheat plant response rating.
Setting [16] is: postemergence, read-out: Ryegrass, Italian plant response rating.
Setting [17] is: postemergence, visual injury on 0 to 100 scale (0 no effect, 100 complete control), approx. 10 d, read-out: Blackgrass plant response rating.
Where [18] appears, read: postemergence, 0 to 100 scale, 0 is no effect, 100 is complete control, read-out: Blackgrass plant response rating.
The mark [19] stands for this setting: postemergence, visual injury on 0 to 100 scale (0 no effect, 100 complete control), approx. 10 d, read-out: Kochia plant response rating.
[20] abbreviates: postemergence, 0 to 100 scale, 0 is no effect, 100 is complete control, read-out: Kochia plant response rating.
The mark [21] stands for this setting: postemergence, visual injury rating after approximately 10 d, read-out: Pigweed plant response rating (0 to 100 scale, 0 no effect, 100 complete control).
Setting [22] is: postemergence, visual injury rating after approximately 10 d, read-out: Foxtail, Giant plant response rating (0 to 100 scale, 0 no effect, 100 complete control).
Setting [23] is: postemergence, visual injury rating after approximately 10 d, read-out: Wheat plant response rating (0 to 100 scale, 0 no effect, 100 complete control).
The mark [24] stands for this setting: postemergence, visual injury rating after approximately 10 d, read-out: Ryegrass, Italian plant response rating (0 to 100 scale, 0 no effect, 100 complete control).
[25] abbreviates: postemergence, visual injury rating after approximately 10 d, read-out: Blackgrass plant response rating (0 to 100 scale, 0 no effect, 100 complete control).
Setting [26] is: postemergence, visual injury rating after approximately 10 d, read-out: Kochia plant response rating (0 to 100 scale, 0 no effect, 100 complete control).
[27] abbreviates: postemergence, visual injury on 0 to 100 scale (0 no effect, 100 complete control), approx. 10 d, read-out: Pigweed plant response rating.
Where [28] appears, read: postemergence, visual injury on 0 to 100 scale (0 no effect, 100 complete control), approx. 10 d, read-out: Wheat plant response rating.
The mark [29] stands for this setting: postemergence, visual injury on 0 to 100 scale (0 no effect, 100 complete control), approx. 10 d, read-out: Ryegrass, Italian plant response rating.
Setting [30] is: postemergence, visual injury, 0 to 100 scale (0 no effect, 100 complete control), approx. 10 d, read-out: Plant response rating, Foxtail, Giant.
The mark [31] stands for this setting: postemergence, visual injury, 0 to 100 scale (0 no effect, 100 complete control), approx. 10 d, read-out: Plant response rating, Blackgrass.
The mark [32] stands for this setting: postemergence, visual injury, 0 to 100 scale (0 no effect, 100 complete control), approx. 10 d, read-out: Plant response rating, Kochia.

Where two headings read alike, the source gives them in different places.

Take `Cc1cc([C@H]2CN(C)C(=O)[C@@H]2C(=O)Nc2ccccc2S(C)(=O)=O)ccc1Cl` [Compound 944]: the pest or weed control at 125 g/ha in test [1] (setting [6]) was 30%; in test [2] (setting [7]) it was 90%; in test [4] (setting [9]), 30%; in test [5] (setting [10]), 60%; in the test on Kochia (Kochia scoparia) (setting [11]), 0%. For the same compound, the plant injury at 125 g/ha in test [3] (setting [8]) came to 40%.
As to `CN1C[C@H](c2ccc(C(F)(F)F)cc2)[C@](F)(C(=O)Nc2cccc(F)c2F)C1=O` (racemic) [Compound 1152], the pest or weed control at 125 g/ha in test [1] (postemergence, visual injury vs untreated controls after approx. 10 d, 0 = no effect, 100 = complete control, read-out: Pigweed plant response rating (0 to 100 scale)) was 0%; in test [2] (setting [13]) it was 20%; in test [4] (postemergence, visual injury vs untreated controls after approx. 10 d, 0 = no effect, 100 = complete control, read-out: Ryegrass, Italian plant response rating (0 to 100 scale)) it was 0%; in test [5] (setting [17]), 0%; in the test on Kochia (Kochia scoparia) (setting [19]), 0%. Besides, the pest or weed control at 500 g/ha in test [1] (setting [12]) amounted to 0%; in test [2] (setting [14]), 40%; in test [4] (setting [16]) it was 0%; in test [5] (setting [18]) it was 0%; in the test on Kochia (Kochia scoparia) (setting [20]), 0%. Further, the plant injury at 125 g/ha in test [3] (postemergence, visual injury vs untreated controls after approx. 10 d, 0 = no effect, 100 = complete control, read-out: Wheat plant response rating (0 to 100 scale)) stood at 0%. Moreover, the plant injury at 500 g/ha in test [3] (setting [15]) was 0%.
Turning to `CC(C)COc1cccc([C@H]2CNC(=O)[C@@H]2C(=O)Nc2ccc(F)cc2F)c1` [Compound 966], the pest or weed control at 125 g/ha in test [1] (setting [6]) was determined as 0%; in test [2] (setting [7]), 40%; in test [4] (setting [9]), 0%; in test [5] (setting [10]) it was 20%; with Kochia (Kochia scoparia) (setting [11]), 0%. The plant injury at 125 g/ha in test [3] (setting [8]) came to 0%.
As for `CSc1ccccc1NC(=O)[C@H]1C(=O)N(C)C[C@@H]1c1cc(C)cc(F)c1` [Compound 851], the pest or weed control at 125 g/ha in test [1] (setting [21]) turned out to be 0%; in test [2] (setting [22]) it was 90%; in test [4] (setting [24]), 0%; in test [5] (setting [25]), 0%; in the test with Kochia (Kochia scoparia) (setting [26]), 0%. In test [3] (setting [23]), the plant injury at 125 g/ha turned out to be 20%.
Regarding `O=C1NC[C@H](c2ccc3c(c2)OCO3)[C@H]1C(=O)Nc1cccc(F)c1C(F)(F)F` [Compound 1127], the pest or weed control at 125 g/ha (in test [1] (setting [27]); in test [2] (setting [13]); in test [4] (setting [29]); in test [5] (setting [17]); with Kochia (Kochia scoparia) (setting [19])) was 0% each time. In addition, the pest or weed control at 500 g/ha in test [1] (setting [12]) worked out at 0%; in test [2] (setting [14]) it was 50%; in test [4] (setting [16]), 0%; in test [5] (setting [18]), 20%; in the test with Kochia (Kochia scoparia) (setting [20]), 0%. Moreover, the plant injury at 125 g/ha in test [3] (setting [28]) was determined as 0%. The plant injury at 500 g/ha in test [3] (setting [15]) was determined as 0%.
`CN1C[C@H](c2cccc(C3CC3)c2)[C@@H](C(=O)Nc2cccc(F)c2F)C1=O` [Compound 816]: the pest or weed control at 125 g/ha in test [1] (setting [21]) was found to be 0%; in test [2] (setting [22]) it was 90%; in test [4] (setting [24]), 60%; in test [5] (setting [25]) it was 60%; in the test on Kochia (Kochia scoparia) (setting [26]) it was 30%. The plant injury at 125 g/ha in test [3] (setting [23]) worked out at 30%.
On to `Cc1cc([C@H]2CNC(=O)[C@@H]2C(=O)Nc2ccccc2F)ccc1C(F)(F)F` [Compound 1042], for which the pest or weed control at 125 g/ha is 20% in test [1] (setting [27]); 80% in test [2] (setting [13]); 30% in test [4] (setting [29]); 40% in test [5] (setting [17]); 30% with Kochia (Kochia scoparia) (setting [19]). Moreover, the pest or weed control at 500 g/ha in test [2] (setting [30]) is 90%; in test [5] (setting [31]) it was 70%; in the test on Kochia (Kochia scoparia) (setting [32]) it was 60%. Moreover, the plant injury at 125 g/ha in test [3] (setting [28]) came to 0%.
For `Cc1ccc([C@H]2CN(C)C(=O)[C@@H]2C(=O)Nc2ccccc2F)cc1C` [Compound 1038], the pest or weed control at 125 g/ha in test [1] (setting [27]) was 0%; in test [2] (setting [13]) it was 90%; in test [4] (setting [29]) it was 20%; in test [5] (setting [10]) it was 30%; in the test with Kochia (Kochia scoparia) (setting [19]) it was 40%. In addition, the figures for the pest or weed control at 500 g/ha (in test [2] (setting [30]); in test [5] (setting [31]); with Kochia (Kochia scoparia) (setting [32])) were 90%, 50% and 80%, respectively. In addition, in test [3] (setting [28]), the plant injury at 125 g/ha is 20%.

Source of the values: patent US12077503B2, “Substituted cyclic amides and their use as herbicides” (FMC CORPORATION, priority 2015, dated 2024).
